# Results reported in patent US20090088373A1, “USE OF COMPOSITIONS TO ENHANCE INNATE IMMUNE RESPONSE” (priority 2007, published 2009).
# Key:
# HBD3 = HBD3 expression in normal human keratinocytes (NHEK); assay type: cell-based; parameters: unit not given here; conditions: Example 2; TLR ligand alone, without Pimecrolimus
# Description: (§1) To assess the effect of pimecrolimus on the innate immune response of the epidermis, cultures of normal human keratinocytes (NHEK) are stimulated with combinations of a concentration of 10 nM pimecrolimus, 1 μg/ml TLR 2/CD14 ligand—peptidoglycan (PGN), 10 μg/ml lipoteichoic acid (LTA), 2 0.1 μg/ml TLR 2/6 ligand—Malp-, and/or 0.1 μg/ml TLR 4/CD14 ligand—lipopolysaccharide (LPS). Expression of cathelicidin mRNA (Table 3) and protein as well as Human Beta Defensin (HBD) 2 (Table 4) and HBD3 (Table 5) expression in normal human keratinocytes is measured.
# cathelicidin = experiment: Cathelicidin mRNA expression in normal human keratinocytes (NHEK); assay type: cell-based; parameters: Cathelicidin mRNA expression (Mean) / Cathelicidin mRNA expression (means): unit not given here; conditions: for Cathelicidin mRNA expression (means): 1 uM tacrolimus, 1 ug/ml CsA, 25ng/ml rapamycin; for Cathelicidin mRNA expression (Means of N = 3): Example 6, 10 nM Pimecrolimus, 1 nM 1,25D3
# Description: as §1
# (§2) To assess the effect of pimecrolimus on the innate immune response of the epidermis, cultures of normal human keratinocytes (NHEK) are stimulated with a concentration of 10 nM pimecrolimus,1 nM 1.25 D3, 0.1 μg/ml TLR2/6 ligand Malp-2 or their combination. Expression of cathelicidin, CD14 and TLR2 mRNA normal human keratinocytes is measured and evaluated accordingly to the procedures as detailed in Example 2 above.
# To assess the effect of pimecrolimus on the innate immune response of the epidermis, cultures of normal human keratinocytes (NHEK) are stimulated with a concentration of 10 nM pimecrolimus, 1 uM tacrolimus, 1 ug/ml CsA, 25ng/ml rapamycin, or a combination of pimecrolimus and rapamycin, each of these with or without 0.1 μg/ml TLR2/6 ligand Malp-2. Cathelicidin mRNA expression is evaluated.
# (§3) To assess the effect of time dependent effects of pimecrolimus on the innate immune response of the epidermis, cultures of normal human keratinocytes (NHEK) are stimulated with 10 nM Pimecrolimus and low dose calciferol (1,25D3) 1 nM for different time points. mRNA expression of cathelicidin, CD14 and TLR2 is analyzed by qPCR.
# To assess the effect of varying levels of pimecrolimus on the innate immune response of the epidermis, cultures of normal human keratinocytes (NHEK) are stimulated with 0 nM, 5 nM, 10 nM, 20 nM, 30 nM, […], […] and 60 nM concentrations of pimecrolimus. Expression of cathelicidin mRNA expression is measured and evaluated accordingly to the procedures as detailed in Example 2 above.
# (§4) To assess the effect of calciferol on varying levels of pimecrolimus on the innate immune response of the epidermis, cultures of normal human keratinocytes (NHEK) are stimulated with 0.01 nM, 0.1 nM, 1 nM and 10 nM concentrations of pimecrolimus with or without 1 nM concentrations of calciferol for 24 hours. Expression of cathelicidin mRNA and gene expression of TLR2 is measured and evaluated accordingly to the procedures as detailed in Example 2 above.
# [1] = tested on: Human Beta Defensin (HBD) 2; experiment: HBD2 expression in normal human keratinocytes (NHEK); assay type: cell-based; parameters: unit not given here; conditions: Example 2; TLR ligand alone, without Pimecrolimus
# Description: as §1
# TLR1 = TLR1 gene expression by qPCR in NHEK; assay type: cell-based, human; conditions: Example 3; 10 nM pimecrolimus, 1 nM 1.25D3
# Description: (§5) To assess the effect of pimecrolimus on the innate immune response of the epidermis, cultures of normal human keratinocytes (NHEK) are stimulated with a combination of a concentration of 10 nM pimecrolimus and of 1 nM 1.25D3. Gene expression of TLR1, TLR2, TLR4, TLR6 and CD14 are evaluated by qPCR. For CD14 protein expression, a Western Blot is performed and bands are quantified by densitometry using lmagej. Vehicle treated keratinocytes serve as controls. Cathelicidin protein expression is evaluated by immunofluorescence staining.
# TLR6 = TLR6 gene expression by qPCR in NHEK; assay type: cell-based, human; conditions: Example 3; 10 nM pimecrolimus, 1 nM 1.25D3
# Description: as §5
# [2] = tested on: Staphylococcus aureus ΔmprF; experiment: Growth of S. aureus ΔmprF (OD600) mixed with lysates of stimulated normal human keratinocytes; assay type: cell-based; conditions: S. aureus + lysates of NHEK stimulated with 10 nM pimecrolimus, 1 nM 1.25D3 or combination, 37° C.
# Description: To assess the effect of pimecrolimus on the innate immune response of the epidermis against bacteria, cultures of normal human keratinocytes (NHEK) are stimulated with a concentration of 10 nM pimecrolimus, 1 nM 1.25D3 (active 1.25 D-hydroxy calciferol) or their combination. Cells are lysed via sonication 20 minutes in an ice bath, after which cell lysates were mixed with Staphylococcus aureus ΔmprF cultures and incubated at 37° C. Bacterial growth over time is monitored by OD600 (Table 1). To determine if Pimecrolimus alone was able to kill Staphylococcus aureus ΔmprF, Pimecrolimus in a concentration of 10 nM is co-incubated with Staphylococcus aureus ΔmprF cultures and incubated at 37° C. (Table 2). Bacterial growth is monitored by OD600 (*: p<0.05; **: p<0.01; Student's t-test).
# TLR2 = TLR2 gene expression by qPCR in NHEK; assay type: cell-based, human; conditions: for TLR2 mRNA expression (Mean): 10 nM pimecrolimus; for TLR2 mRNA expression (Means of N = 3): Example 6, 10 nM Pimecrolimus, 1 nM 1,25D3
# Description: as §5, §2, §3, §4
# CD14 = CD14 gene expression by qPCR in NHEK; assay type: cell-based, human; conditions: for CD14 mRNA expression (Mean): 10 nM pimecrolimus; for CD14 mRNA expression (Means of N = 3): Example 6, 10 nM Pimecrolimus, 1 nM 1,25D3
# Description: as §5, §2, §3
# [3] = Example 2, TLR ligand alone, without Pimecrolimus (1 μg/ml PGN, 10 μg/ml LTA, 0.1 μg/ml Malp-2, 0.1 μg/ml LPS)
# [4] = Example 5, Experiment 1, with 0.1 μg/ml Malp-2, 10 nM pimecrolimus
# [5] = Example 5, Experiment 2, with 0.1 μg/ml Malp-2, 10 nM pimecrolimus
# [6] = Example 5, Experiment 1, without Malp-2, 10 nM pimecrolimus
# [7] = Example 5, Experiment 2, without Malp-2, 10 nM pimecrolimus
# [8] = Example 4, 1 nM 1.25 D3, 0.1 μg/ml Malp-2 or combination
molecule,measurement,setting,value
Malp-2,HBD3 expression (Mean),HBD3,3.51
same,Cathelicidin mRNA expression (Mean),cathelicidin; [3],2.29
same,Cathelicidin mRNA expression (means),cathelicidin; [4],1.53
same,Cathelicidin mRNA expression (means),cathelicidin; [5],3.19
same,HBD2 expression (Mean),[1],119.16
"CO[C@H]1C[C@@H]2CC[C@@H](C)[C@@](O)(O2)C(=O)C(=O)N2CCCC[C@H]2C(=O)O[C@H]([C@H](C)C[C@@H]2CC[C@@H](O)[C@H](OC)C2)CC(=O)[C@H](C)/C=C(\C)[C@@H](O)[C@@H](OC)C(=O)[C@H](C)C[C@H](C)/C=C/C=C/C=C/1C [Rapamycin, rapamycin]",Cathelicidin mRNA expression (means),cathelicidin; [4],4.03
same,Cathelicidin mRNA expression (means),cathelicidin; [6],5.13
same,Cathelicidin mRNA expression (means),cathelicidin; [5],12.38
same,Cathelicidin mRNA expression (means),cathelicidin; [7],5.85
lipoteichoic acid [LTA],HBD3 expression (Mean),HBD3,2.46
same,Cathelicidin mRNA expression (Mean),cathelicidin; [3],3.82
same,HBD2 expression (Mean),[1],4.43
peptidoglycan [PGN],HBD3 expression (Mean),HBD3,0.61
same,Cathelicidin mRNA expression (Mean),cathelicidin; [3],1.18
same,HBD2 expression (Mean),[1],3.26
lipopolysaccharide [LPS],HBD3 expression (Mean),HBD3,1.39
same,Cathelicidin mRNA expression (Mean),cathelicidin; [3],0.65
same,HBD2 expression (Mean),[1],5.68
"C=C1/C(=C\C=C2/CCC[C@]3(C)[C@@H]([C@H](C)CCCC(C)(C)O)CC[C@@H]23)C[C@@H](O)C[C@@H]1O [1.25D3, 1.25 D-hydroxy calciferol]",TLR1 mRNA expression (Mean),TLR1,1.93
same,TLR6 mRNA expression (Mean),TLR6,1.01
same,Cathelicidin mRNA expression (Mean),"cathelicidin; Example 4, 10 nM pimecrolimus, 1 nM 1.25 D3, 0.1 μg/ml Malp-2 or combination",2.76
same,Cathelicidin mRNA expression (Means of N = 3),cathelicidin; 0 h,1.00
same,Cathelicidin mRNA expression (Means of N = 3),cathelicidin; 8 h,35.04
same,Cathelicidin mRNA expression (Means of N = 3),cathelicidin; 24 h,134.03
same,Cathelicidin mRNA expression (Means of N = 3),cathelicidin; 48 h,92.37
same,Bacterial growth OD600 (Mean),[2]; 0 h,0.2203
same,Bacterial growth OD600 (Mean),[2]; 2 h,0.2677
same,Bacterial growth OD600 (Mean),[2]; 4 h,0.301
same,Bacterial growth OD600 (Mean),[2]; 5 h,0.3963
same,Bacterial growth OD600 (Mean),[2]; 6 h,0.513
same,Bacterial growth OD600 (Mean),[2]; 8 h,0.6203
same,TLR2 mRNA expression (Mean),"TLR2; Example 3, 1 nM 1.25D3",0.66
same,TLR2 mRNA expression (Mean),TLR2; [8],0.10
same,TLR2 mRNA expression (Means of N = 3),TLR2; 0 h,1.00
same,TLR2 mRNA expression (Means of N = 3),TLR2; 8 h,1.32
same,TLR2 mRNA expression (Means of N = 3),TLR2; 24 h,1.51
same,TLR2 mRNA expression (Means of N = 3),TLR2; 48 h,1.55
same,CD14 mRNA expression (Mean),"CD14; Example 3, 1 nM 1.25D3",3.01
same,CD14 mRNA expression (Mean),CD14; [8],3.01
same,CD14 mRNA expression (Means of N = 3),CD14; 0 h,0.71
same,CD14 mRNA expression (Means of N = 3),CD14; 8 h,38.35
same,CD14 mRNA expression (Means of N = 3),CD14; 24 h,12.26
same,CD14 mRNA expression (Means of N = 3),CD14; 48 h,0.93
"C=CC[C@@H]1/C=C(\C)C[C@H](C)C[C@H](OC)[C@H]2O[C@@](O)(C(=O)C(=O)N3CCCC[C@H]3C(=O)O[C@H](/C(C)=C/[C@@H]3CC[C@@H](O)[C@H](OC)C3)[C@H](C)[C@@H](O)CC1=O)[C@H](C)C[C@@H]2OC [Tacrolimus, tacrolimus]",Cathelicidin mRNA expression (means),cathelicidin; [4],5.47
same,Cathelicidin mRNA expression (means),cathelicidin; [6],0.67
same,Cathelicidin mRNA expression (means),cathelicidin; [5],0.77
same,Cathelicidin mRNA expression (means),cathelicidin; [7],3.34
